Assay: in vitro
Conditions: human, hela cells, % viability

Row | SMILES | viability at 28.5 h, 10 µM [%]
1 | COc1cc(C(=O)NCC(=O)O)cc(Cl)c1OCC(C)C [CBK297485] | 80.8
2 | CCc1ccc2c(COC(=O)c3cccnc3SC)cc(=O)oc2c1 [CBK297486] | 85
3 | Nc1c(N(CCO)C(=O)C2CCCC2)c(=O)[nH]c(=O)n1Cc1ccccc1 [CBK297490] | 97.3
4 | CCCCCCn1nc(C(=O)NCC(=O)O)c2ccccc2c1=O [CBK297491] | 97.3
5 | CCOc1ccc(CN(C)C(=O)Cn2nc(C(=O)O)c3ccccc3c2=O)cc1 [CBK297492] | 83.8
6 | COc1ccc(CCNC(=O)CSC(C)C(=O)O)cc1 (stereo not shown) [CBK297493] | 81.4
7 | COc1ccc(-c2nnc(SCC(=O)c3ccc(F)cc3)n2C2CCCCC2C)cc1 (stereo not shown) [CBK297494] | 89.8
8 | O=C(O)c1cc(C=Cc2ccc(Cl)c([N+](=O)[O-])c2)nc2ccccc12 [CBK297495] | 104
9 | CCN(CC)CCn1c2ccccc2c2nc3cc(C(=O)O)ccc3nc21 [CBK297496] | 101
10 | CC(C)(C)N(Cc1ccccc1)C(=O)Cn1nc(C(=O)O)c2ccccc2c1=O [CBK297498] | 86
11 | O=C(Nc1ccc(S(=O)(=O)N2CCCC2)cc1)C1CC(=O)N(Cc2ccco2)C1 (stereo not shown) [CBK297500] | 92.5
12 | CCOc1ccc(N(CCC#N)C(=O)Cn2nc(C(=O)O)c3ccccc3c2=O)cc1 [CBK297502] | 85.2
13 | COc1cc(C=C2SC(=S)N(CCCCCC(=O)O)C2=O)cc(OC)c1 [CBK297505] | 98.1
14 | O=C(c1cc2ccccc2o1)N1CCN(c2cccc(C(F)(F)F)c2)CC1 [CBK297507] | 96.8
15 | COc1ccc(-c2nnc(SCC(=O)Nc3cc(C)on3)n2C2CCCCC2)cc1 [CBK297510] | 84.1
16 | O=[N+]([O-])c1cccc(Cn2c(CO)nc3ccccc32)c1 [CBK297515] | 95.4
17 | CCC(C)c1ccccc1NC(=O)c1cc(=O)[nH]c2ccccc12 (stereo not shown) [CBK297516] | 89.6
18 | COCCn1c(SCc2cc(=O)oc3cc(C)ccc23)nnc1-c1ccc(Cl)cc1 [CBK297517] | 87.8
19 | COc1ccc(-c2nnc(SCc3cc(=O)oc4cc(C)ccc34)n2CC(C)C)cc1 [CBK297518] | 81.3
20 | COc1ccc(OC)c(NC(=O)c2cc(=O)[nH]c3ccccc23)c1 [CBK297521] | 92.7
21 | COC(=O)c1ccc(CSc2nnc(-c3ccc(OC)cc3)n2C(C)C)o1 [CBK297523] | 96.4
22 | CC(=O)N1CC(C(=O)Nc2ccccc2Cc2ccccc2)Oc2ccccc21 (stereo not shown) [CBK297525] | 88.6

Row | SMILES | viability at 28.5 h, 10 µM [%]
23 | CCS(=O)(=O)c1ccc(O)c(NS(=O)(=O)c2cc(C(=O)O)ccc2Cl)c1 [CBK297531] | 91.1
24 | O=C(O)c1cc(C=Cc2ccc(OC(F)F)cc2)nc2ccccc12 [CBK297532] | 85.3
25 | C[C@H](Nc1ccc(C(F)(F)F)cc1[N+](=O)[O-])C(=O)NCCOc1ccccc1F [CBK297535] | 106
26 | O=C(OCc1cc([N+](=O)[O-])cc2c1OCOC2)c1ccco1 [CBK297537] | 97.9
27 | O=C(Cn1nc(C(=O)O)c2ccccc2c1=O)c1ccc(C2CCCCC2)cc1 [CBK297538] | 89.5
28 | Cc1ccc(-n2c(SCC(=O)N3CCC(C(=O)O)CC3)nc3ccccc3c2=O)cc1C [CBK297540] | 81.4
29 | Cc1nc(SCC(=O)c2cc(Cl)ccc2Cl)c2ccccc2n1 [CBK297543] | 100
30 | Cc1ccc(NC(=S)NCCNc2ccccn2)cc1Cl [CBK297544] | 105
31 | Cc1cc(=O)n2c(C(=O)Nc3cccc(C(=O)O)c3)c(C(=O)Nc3cccc(C)c3C)sc2n1 [CBK297545] | 101
32 | Cc1cc(=O)n2c(C(=O)Nc3ccc(C(=O)O)cc3)c(C(=O)Nc3cccc(C)c3C)sc2n1 [CBK297547] | 89.5
33 | CC1Cc2ccccc2N1C(=O)Cn1c(CCCO)nc2ccccc21 (stereo not shown) [CBK297548] | 86.1
34 | Cc1ccc(Cn2nc(C)c(C(=O)OCc3cc(=O)n4ccccc4n3)c2Cl)cc1 [CBK297550] | 85.8
35 | O=C(O)CCN1C(=O)C(=Cc2ccc(OCc3ccccc3)cc2)c2ccccc2C1=O [CBK297552] | 105
36 | CCc1ccc(NC(=O)CNc2cc(C)ccc2OC)cc1 [CBK297553] | 107
37 | CCCCn1c(CSc2ncccc2C(=O)O)nc2cc(S(=O)(=O)N3CCOCC3)ccc21 [CBK297558] | 84.1
38 | Cc1nnc(CNC(=O)c2cc(-c3ccc(Cl)cc3)nc3ccccc23)o1 [CBK297717] | 109
39 | Cc1ccccc1CN1CCCN(C(=O)CCNC(=O)c2ccco2)CC1 [CBK297718] | 103
40 | O=C(NCc1ccc(F)cc1)c1ccc(Cn2ccnc2)cc1 [CBK297719] | 96.3
41 | CC(Nc1cc(Cl)c(C(F)(F)F)cc1[N+](=O)[O-])c1ccc2[nH]c(=O)[nH]c2c1 (stereo not shown) [CBK297721] | 86.7
42 | CCOCN(C(=O)Cn1c(C(C)O)nc2ccccc21)c1c(C)cccc1CC (stereo not shown) [CBK297722] | 87.6
43 | Cc1ccc(C)c(C2C(C(=O)c3ccccc3Cl)=C(O)C(=O)N2c2ccc(CC(=O)O)cc2)c1 (stereo not shown) [CBK297723] | 90.7
44 | CSc1nc2ccc(Nc3cc(C)nc4ncnn34)cc2s1 [CBK297724] | 105

Row | SMILES | viability at 28.5 h, 10 µM [%]
45 | CN(Cc1cccnc1)C(=O)Cc1ccc(-n2cccn2)cc1 [CBK297726] | 85.6
46 | C#CCNS(=O)(=O)c1ccc(C(=O)Nc2ccnn2Cc2ccccc2)cc1 [CBK297727] | 96.4
47 | OCCCc1nc2ccccc2n1CCOc1ccccc1 [CBK297728] | 97.8
48 | O=C(Nc1cccc(N2CCCC2=O)c1)c1ccccc1Nc1ccccc1 [CBK297729] | 85.8
49 | Cc1n[nH]c(-c2ccccc2NC(=O)Cc2sc(C)nc2-c2cccs2)n1 [CBK297737] | 88.5
50 | CCCc1n[nH]c(=S)n1CC(=O)NCc1ccc(N2CC(C)OC(C)C2)nc1 (stereo not shown) [CBK297741] | 90.4
51 | CCCc1n[nH]c(=S)n1CC(=O)NCc1ccc(Oc2cc(C)ccc2C)nc1 [CBK297742] | 87.5
52 | CCCc1n[nH]c(=S)n1CC(=O)NCc1ccc(OCCC(C)C)c(OC)c1 [CBK297743] | 84.4
53 | CCCC(=O)NC1CCN(C(=O)c2snnc2CC)CC1 [CBK297744] | 97.3
54 | COc1ccc(NS(=O)(=O)c2ccc3c(c2)N(CC(=O)O)C(=O)CO3)cc1NS(C)(=O)=O [CBK297745] | 90.1
55 | CC(NC(=O)CCCC(=O)c1cccs1)c1cccc2ccccc12 (stereo not shown) [CBK297748] | 105
56 | CC(CNC(=O)c1ccc([N+](=O)[O-])o1)N1CCc2sccc2C1 (stereo not shown) [CBK297749] | 87.9
57 | Cc1cc(N(C)Cc2ccccc2Br)nc(N)n1 [CBK297753] | 70.2
58 | Cn1c(Sc2ccc(C#N)cn2)nnc1-c1ccco1 [CBK297756] | 111
59 | C=CCn1c(-c2sc(NC(=O)c3[nH]c4c(c3C)C(=O)CC(C)(C)C4)nc2C)n[nH]c1=S [CBK297757] | 91
60 | Cc1csc(NC(=O)c2c(C)c(C)n[nH]c2=O)n1 [CBK297759] | 84.4
61 | CCN(CC(=O)NCc1cccs1)C(=O)CN1CCCC1c1ccc(C)cc1 (stereo not shown) [CBK297761] | 104
62 | Cc1c(C(=O)Nc2cccc(S(=O)(=O)NCc3ccco3)c2)cnn1-c1ccccc1 [CBK297762] | 89.7
63 | COc1ccc(C(=O)O)cc1S(=O)(=O)Nc1cccc(C=Cc2ccccn2)c1 [CBK297763] | 110
64 | O=C(Cn1c(-c2cccs2)n[nH]c1=S)N1CCC(c2nc3cc(Cl)ccc3o2)CC1 [CBK297765] | 95
65 | Cc1ccc(S(=O)(=O)Nc2ccc(C(C)C)cc2)cc1C(=O)O [CBK297766] | 84.2
66 | CC(=O)NCCNC(=O)c1cc(Br)c[nH]1 [CBK297767] | 88.3

Row | SMILES | viability at 28.5 h, 10 µM [%]
67 | Cc1ccc(CN2CCCN(C(=O)Cn3nc4ccccn4c3=O)CC2)cc1 [CBK297768] | 79.7
68 | CCCCN(C(=O)C(F)(F)c1ccccc1)c1c(N)n(CCC)c(=O)[nH]c1=O [CBK297769] | 91.4
69 | Cc1ccc(-c2nc(C)c(C(=O)Nc3ccc(-n4cncn4)nc3)s2)o1 [CBK297770] | 95.3
70 | Cc1nc(-c2ccco2)nc2sc(C(=O)NCc3nnc4ccccn34)c(C)c12 [CBK297773] | 107
71 | Cc1nc(COC(=O)c2ccc(C#N)c(C)n2)cs1 [CBK297775] | 88.9
72 | Cc1ccn2c(=O)cc(COC(=O)c3sc4nc(C)cc(C)c4c3N)nc2c1 [CBK297783] | 93.3
73 | CC(C)CN(CC(C)C)C(=O)Cn1cc([N+](=O)[O-])cc(C(N)=O)c1=O [CBK297784] | 83.9
74 | COc1ccc(C2=NN(C(=O)CCCC(=O)O)C(c3ccc4nccnc4c3)C2)cc1OC (stereo not shown) [CBK297785] | 84.2
75 | CCc1nn2c(=O)cc(CNc3ccc4c(c3)OCCO4)nc2s1 [CBK297787] | 99.2
76 | COC(=O)c1cc(C#N)c(=O)n(CC(=O)N(C)Cc2ccsc2)c1 [CBK297788] | 115
77 | O=C(CNC(=O)c1ccc(OC(F)F)cc1)NCCCn1cccn1 [CBK297789] | 106
78 | CC(NC(=O)CS(=O)(=O)Cc1ccc(C#N)cc1)c1ccc(C#N)cc1 (stereo not shown) [CBK297791] | 91.1
79 | Cc1ccc(CN2CCCN(C(=O)CCn3cnc4c(cnn4C)c3=O)CC2)cc1 [CBK297793] | 79.8
80 | Cn1nnnc1-c1cccc(NC(=O)c2ccc(Oc3ccccc3)cc2)c1 [CBK297872] | 81.6
81 | CCOC(=O)c1sc2cccc(F)c2c1COC(=O)c1ccc(CNC(N)=O)cc1 [CBK297873] | 101
82 | Cc1cc(C(=O)CSc2nnc(-c3ccccc3F)n2CC(C)C)c(C)[nH]1 [CBK297877] | 85.1
83 | CCOC(=O)C1=C(C)N(c2ccc(C(=O)O)cc2)C(=O)NC1c1ccc(OC(F)F)c(OC)c1 (stereo not shown) [CBK297878] | 90.1
84 | CCC(CC)(CC(=O)Nc1ccc(N2CCCC2=O)c(C)c1)C(=O)O [CBK297881] | 101
85 | CCC(CC)(CC(=O)Nc1ccc2nc(C)sc2c1)C(=O)O [CBK297882] | 112
